The values below come from paper PMC8468767, “Optimisation of a Microfluidic Method for the Delivery of a Small Peptide” (Pharmaceutics, 2021).

For data set [1] the following is noted: mice, cited from earlier work. The text has this: The hexapeptide, phenylpropanoic acid-[ornithine-proline-d-cyclohexylalanine-tryptophan-arginine] (HC-[OPdChaWR]) is an antagonist of the C5a receptor 1 (C5aR1) of the innate immune complement cascade.
The nature of data set [2]: Solubility of the peptide in water. In kind it is physicochemical. The settings on record: method not described.
Data set [3] is described as follows: Plasma pharmacokinetics after a single IV dose in mice. It is filed as in vivo. The settings on record: male C57BL/6J mice, LC-MS/MS. The procedure: The C5aR1 peptide antagonist concentrations were quantified by a previously developed and validated LC–MS/MS method. Briefly, the LC–MS/MS system consisted of an API 3200 (AB SCIEX) triple quadrupole LC–MS/MS mass spectrometer coupled with an Agilent 1200 series HPLC system (Agilent Technologies, Santa Clara CA, USA). For sample processing, 10 µL of the solution containing the C5aR1 peptide antagonist was mixed with 10 µL of internal standard (AcF-[OPdChaWR]) dissolved in solvent (ACN) followed by sample processing, extraction, supernatant isolation, drying, and reconstitution in a 75% methanol-in-water solution. A small volume of processed sample (approximately 50 µL) was used for the LC–MS measurement. The autosampler was set at 4 °C and the column oven temperature was maintained in the range of 25 ± 1 °C. The system control and data acquisition were executed by Analyst software (AB SCIEX, Applied Biosystems Inc., Framingham, MA, USA, version 1.5.1). Chromatographic separation was implemented using a Kinetex EVO C18 analytical column (100 mm × 2.1 mm, 100 Å, 5 µm, Phenomenex Inc., Torrance, CA, USA) under binary gradient conditions using mobile phase A (milliQ water containing 0.1% formic acid) and mobile phase B (acetonitrile containing 0.1% formic acid) with a variable flow rate, as described in Kumar et al..
The plasma pharmacokinetic (PK) profile and biodistribution of peptide-loaded nanoparticles (1 mg/kg equivalent dose of free peptide) vs. free peptide were assessed in mice after intravenous (IV; via tail vein) dosing. Serial blood samples were collected via a tail vein using a microsampling technique. Blood samples were collected at 0.04, 0.25, 0.5, 0.75, 1, 1.5, […], 4, 6, and 24 h for both groups and then 48, 72, 96, and 120 h for the nanoparticle group. The blood samples were centrifuged at 2000× g for 10 min at 4 °C, and the separated plasma samples (10 µL) were collected, diluted with 100 µL of milliQ water and 10 µL of internal standard, filtered through Microcon®-10 centrifugal filters (Merck, Melbourne, VIC, Australia) to separate nanoparticles from released peptide, and stored at −80 °C until time of analysis. For tissue distribution, on the terminal day, i.e., day 1 for native peptide and day 5 for the nanoparticle group, animals were transcardially perfused using PBS solution to remove circulatory peptide/formulation, and tissue samples were collected, processed as described in our previously published method, and filtered as mentioned above.
On the day of analysis, samples were processed for C5aR1 peptide antagonist concentrations using the above-mentioned LC–MS/MS method as described previously. […]

As usually defined, the MRT is a mean duration of stay, worked out from the concentration-time curve.

≈ marks a conversion by molar mass, not a printed value. Where “and” joins values, the source holds several entries; their conditions need not be identical. Equal values may be shown once. Bridge positions count the residues as written; N and C are the ends. Square brackets hold non-standard residues; d marks the D form. Peptide text beside a SMILES is read from it. * marks the point of attachment. Hydrocinnamoyl = O=C(CCc1ccccc1)*; dCha = N[C@H](CC1CCCCC1)C(=O)O; Orn = NCCC[C@H](N)C(=O)O

`N=C(N)NCCC[C@@H]1NC(=O)[C@H](Cc2c[nH]c3ccccc23)NC(=O)[C@@H](CC2CCCCC2)NC(=O)[C@@H]2CCCN2C(=O)[C@@H](NC(=O)CCc2ccccc2)CCCNC1=O` [HC-[OPdChaWR], phenylpropanoic acid-[ornithine-proline-d-cyclohexylalanine-tryptophan-arginine]] (Hydrocinnamoyl-[Orn]P[dCha]WR; lactam 1-C): in data set [1] (intravenous (IV) injection), the “plasma half-life in vivo” value was 10.2 min. Further, the “t1/2 values reported previously” value in data set [1] (listed as free peptide) was 10.2 min and 19.8 min. This compound displayed a solubility in water in data set [2] of 1000 µg/mL (≈ 1190 µM). In data set [3] (single IV 1 mg/kg peptide equivalent, plasma), the “time for which plasma peptide levels are measurable after dosing” value is “unmeasurable after 6 h post-dosing”. For the same compound, in data set [3] (mouse, single IV 1 mg/kg peptide equivalent, plasma, two-compartmental model, n = 4, read-out: mean residence time (MRT)), the MRT was 45.6 min. The AUC(0-t) in data set [3] (mouse, single IV 1 mg/kg, plasma, linear trapezoidal rule, n = 4, read-out: systemic exposure (AUC0-t)) was determined as 3830 ng·h/mL. Further, in data set [3] (mouse, single IV (tail vein) 1 mg/kg peptide equivalent, plasma filtered (Microcon-10) so released peptide is measured, two-compartmental model, n = 4, read-out: terminal elimination half-life (t1/2) (converted)), the half-life is 50.4 min.
